Measurements as given in ChEMBL document CHEMBL5338779, “Discovery, Synthesis, and In Vitro Characterization of 2,3 Derivatives of 4,5,6,7-Tetrahydro-Benzothiophene as Potent Modulators of Retinoic Acid Receptor-Related Orphan Receptor γt” (J Med Chem, 2023).
Converted amounts (≈) assume the structure as drawn.

Target: T1, Nuclear receptor ROR-gamma (Homo sapiens, UniProt P51449)
T1 sequence (P51449 whole entry): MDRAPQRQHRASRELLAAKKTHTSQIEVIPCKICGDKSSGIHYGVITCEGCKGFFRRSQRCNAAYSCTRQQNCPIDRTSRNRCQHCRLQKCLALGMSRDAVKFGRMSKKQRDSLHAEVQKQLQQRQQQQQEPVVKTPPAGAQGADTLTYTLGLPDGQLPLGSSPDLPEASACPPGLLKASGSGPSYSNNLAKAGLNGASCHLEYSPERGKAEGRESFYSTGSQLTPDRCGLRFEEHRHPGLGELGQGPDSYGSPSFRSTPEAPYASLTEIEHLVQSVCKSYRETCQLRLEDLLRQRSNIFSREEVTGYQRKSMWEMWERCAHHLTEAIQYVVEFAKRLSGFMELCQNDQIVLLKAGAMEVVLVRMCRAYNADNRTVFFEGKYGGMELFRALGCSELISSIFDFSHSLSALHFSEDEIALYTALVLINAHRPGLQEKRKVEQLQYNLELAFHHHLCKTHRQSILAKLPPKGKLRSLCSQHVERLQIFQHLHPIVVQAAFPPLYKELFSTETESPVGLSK
Experiment: biochemical
Format: cell-based, Insect cell
Conditions: not given

IC50 | Compound
0.00207 µM | O=C(NCc1ccccc1)c1c(NC(=O)C(F)(F)F)sc2c1CCCC2
0.0573 µM | O=C(Nc1sc2c(c1C(=O)NCC1CCNCC1)CCCC2)c1cccnc1
0.00343 µM | Cn1cnc(CNC(=O)c2c(NC(=O)c3cccnc3)sc3c2CCCC3)n1
0.00171 µM | CCc1ccc(N(CC(C)C)S(=O)(=O)c2ccc(OCC3CCOCC3)c(CO)c2)cc1 [GSK2981278]
0.0458 µM | O=C(Nc1sc2c(c1C(=O)N1CCC(CO)C1)CCCC2)c1cccnc1 (centres undefined)
0.0166 µM | Cc1cnc(S(C)(=O)=O)nc1C(=O)Nc1sc2c(c1C(=O)c1ccccc1)CCCC2

Tested on: not listed separately
Experiment: Apparent permeability across apical to basolateral side in human Caco-2 cells measured after 90 mins by LC-MS/MS analysis
Conditions: caco-2, 1.5 h

Papp | Compound
4.4 10^-6 cm/s | O=C(Nc1sc2c(c1C(=O)N1CCC(CO)C1)CCCC2)c1cccnc1 (centres undefined)

Target: T2, Nuclear receptor ROR-gamma (Homo sapiens) (UniProt P51449)
T2 sequence (whole entry): T1 sequence (P51449 whole entry)
Experiment: not given
Conditions: HEK293T, filed as inverse agonist, dose 0.004-1000 nM

deltaG | Compound
-10.2 kcal/mol | O=C(NCc1ccccc1)c1c(NC(=O)C(F)(F)F)sc2c1CCCC2
-7.29 kcal/mol | O=C(Nc1sc2c(c1C(=O)NCC1CCNCC1)CCCC2)c1cccnc1
-13.3 kcal/mol | Cn1cnc(CNC(=O)c2c(NC(=O)c3cccnc3)sc3c2CCCC3)n1
-6.16 kcal/mol | O=C(Nc1sc2c(c1C(=O)N1CCC(CO)C1)CCCC2)c1cccnc1 (centres undefined)
-10.1 kcal/mol | Cc1cnc(S(C)(=O)=O)nc1C(=O)Nc1sc2c(c1C(=O)c1ccccc1)CCCC2

Tested on: not listed separately
Experiment: physchem
Conditions: citrate buffer, pH 5

solubility kinetic at 2 h | Compound
365 µM (≈ 141 µg/mL) | O=C(Nc1sc2c(c1C(=O)N1CCC(CO)C1)CCCC2)c1cccnc1 (centres undefined)

Tested on: not listed separately
Experiment: Lipophilicity, logD of the compound at pH 7.4
Conditions: buffer

logD | Compound
4.43 | O=C(NCc1ccccc1)c1c(NC(=O)C(F)(F)F)sc2c1CCCC2
0.4 | O=C(Nc1sc2c(c1C(=O)NCC1CCNCC1)CCCC2)c1cccnc1
1.62 | Cn1cnc(CNC(=O)c2c(NC(=O)c3cccnc3)sc3c2CCCC3)n1
4.11 | CCc1ccc(N(CC(C)C)S(=O)(=O)c2ccc(OCC3CCOCC3)c(CO)c2)cc1 [GSK2981278]
2.6 | O=C(Nc1sc2c(c1C(=O)N1CCC(CO)C1)CCCC2)c1cccnc1 (centres undefined)
3.94 | Cc1cnc(S(C)(=O)=O)nc1C(=O)Nc1sc2c(c1C(=O)c1ccccc1)CCCC2

Tested on: not listed separately
Experiment: Substrate activity at P-gp in MDCKII-MDR1 cells assessed as efflux ratio of apparent permeability from apical to basolateral side over basolateral to apical side at 10 uM incubated for 90 mins by LC-MS/MS analysis
Conditions: dog, mdckii-mdr1, 1.5 h

Ratio | Compound
4.7 | O=C(Nc1sc2c(c1C(=O)N1CCC(CO)C1)CCCC2)c1cccnc1 (centres undefined)

Tested on: not listed separately
Experiment: physchem
Conditions: PBS, pH 7.4

solubility kinetic at 2 h | Compound
28.8 µM (≈ 11 µg/mL) | O=C(NCc1ccccc1)c1c(NC(=O)C(F)(F)F)sc2c1CCCC2
84.7 µM (≈ 33.8 µg/mL) | O=C(Nc1sc2c(c1C(=O)NCC1CCNCC1)CCCC2)c1cccnc1
93.6 µM (≈ 37.1 µg/mL) | Cn1cnc(CNC(=O)c2c(NC(=O)c3cccnc3)sc3c2CCCC3)n1
79.3 µM (≈ 30.6 µg/mL) | O=C(Nc1sc2c(c1C(=O)N1CCC(CO)C1)CCCC2)c1cccnc1 (centres undefined)
≤ 1 µM | Cc1cnc(S(C)(=O)=O)nc1C(=O)Nc1sc2c(c1C(=O)c1ccccc1)CCCC2

Tested on: not given
Experiment: not given
Conditions: buffer, pH 7.4, 2 h

Kinetic_solubility | Compound
Insoluble | CCc1ccc(N(CC(C)C)S(=O)(=O)c2ccc(OCC3CCOCC3)c(CO)c2)cc1 [GSK2981278]

Tested on: not listed separately
Experiment: physchem
Conditions: fasted state simulated gastric fluid, pH 1.6

solubility kinetic at 2 h | Compound
330 µM (≈ 127 µg/mL) | O=C(Nc1sc2c(c1C(=O)N1CCC(CO)C1)CCCC2)c1cccnc1 (centres undefined)

Tested on: not listed separately
Experiment: Apparent permeability across apical to basolateral side in MDCKII-MDR1 cells at 10 uM incubated for 90 mins by LC-MS/MS analysis
Conditions: dog, mdck-mdr1, 1.5 h

Papp | Compound
5.2 10^-6 cm/s | O=C(Nc1sc2c(c1C(=O)N1CCC(CO)C1)CCCC2)c1cccnc1 (centres undefined)

Tested on: not listed separately
Experiment: Efflux ratio of apparent permeability from apical to basolateral side over basolateral to apical side in MDCKII-MDR1 cells at 10 uM incubated for 90 mins in presence of cyclosporine A by LC-MS/MS analysis
Conditions: dog, mdck-mdr1, 1.5 h

Ratio | Compound
1.4 | O=C(Nc1sc2c(c1C(=O)N1CCC(CO)C1)CCCC2)c1cccnc1 (centres undefined)
